Results as given in US8871722B2, “Perhydrolase epitopes” (Danisco US Inc., priority 2005, dated 2014).

System: human CD4+ T-cells

tetanus toxoid [reference compound]
positive control proliferative response (tetanus toxoid at approximately 5 Lf/mL): robust positive control responses

QLIFEGGEQKTTELA (listed as Mycobacterium smegmatis) [SEQ ID NO:53]
identification of peptide T-cell epitope (significant response in donor pool) (5 μM peptide, human donors): one peptide of interest was identified

B1: perhydrolase: wild-type M. smegmatis perhydrolase enzyme, amino acid sequence SEQ ID NO:2 (protein, listed as Mycobacterium smegmatis)
chain: MAKRILCFGDSLTWGWVPVEDGAPTERFAPDVRWTGVLAQQLGADFEVIEEGLSARTTNIDDPTDPRLNGASYLPSCLATHLPLDLVIIMLGTNDTKAYFRRTPLDIALGMSVLVTQVLTSAGGVGTTYPAPKVLVVSPPPLAPMPHPWFQLIFEGGEQKTTELARVYSALASFMKVPFFDAGSVISTDGVDGIHFTEANNRDLGVALAEQVRSLL
structure index value (relative immunogenicity) (scale 0 to 2, the closer to 2.0 the more immunogenic): < 0.5
